Where “and” joins values, the source holds several entries; their conditions need not be identical. Identical values can stand only once.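 Grown in 96-well plates, cells were treated for 48 hours with each compound at five concentrations. Insufficient inhibition: endpoint recorded as highest concentration tested. Abbreviation: GI50, concentration required for 50% inhibition of growth. TGI: concentration producing complete growth inhibition.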
Tests used:
Assay in all cases: DTP human tumour cell line panel, 48 h
A498 renal = system: A498 renal
CCRF-CEM leukemia = system: CCRF-CEM leukemia
HL-60(TB) leukemia = system: HL-60(TB) leukemia
MALME-3M melanoma = system: MALME-3M melanoma
MDA-MB-435 = system: MDA-MB-435
NCI-H522 lung = system: NCI-H522 lung
RPMI-8226 leukemia = system: RPMI-8226 leukemia
RXF 393 renal = system: RXF 393 renal
SK-MEL-5 melanoma = system: SK-MEL-5 melanoma
TK-10 renal = system: TK-10 renal

| Structure (SMILES) | GI50 (A498 renal) | TGI (A498 renal) | GI50 (CCRF-CEM leukemia) | TGI (CCRF-CEM leukemia) | GI50 (HL-60(TB) leukemia) | TGI (HL-60(TB) leukemia) | GI50 (MALME-3M melanoma) | TGI (MALME-3M melanoma) | GI50 (MDA-MB-435) | TGI (MDA-MB-435) | GI50 (NCI-H522 lung) | TGI (NCI-H522 lung) | GI50 (RPMI-8226 leukemia) | TGI (RPMI-8226 leukemia) | GI50 (RXF 393 renal) | TGI (RXF 393 renal) | GI50 (SK-MEL-5 melanoma) | TGI (SK-MEL-5 melanoma) | GI50 (TK-10 renal) | TGI (TK-10 renal) |
| --- | --- | --- | --- | --- | --- | --- | --- | --- | --- | --- | --- | --- | --- | --- | --- | --- | --- | --- | --- | --- |
| CC(C)[C@H](CO)Nc1nc(Nc2ccc(C(=O)NCCNS(=O)(=O)c3cccc4c(N(C)C)cccc34)c(Cl)c2)c2ncn(C(C)C)c2n1 | 1.83 µM | 6.1 µM | 3.01 µM | > 100 µM | 2.65 µM | 7.43 µM | > 25.5 µM | > 100 µM | 2.43 µM | > 44.2 µM | 2.19 µM | 6.1 µM | 2.14 µM | 5.63 µM | 0.381 µM | 1.78 µM | 2.07 µM | 5.16 µM | 7.62 µM | > 100 µM |
| NC(N)=N/N=C\c1cccc(OCc2ccccc2)c1 | 11.4 µM | 23.5 µM | 9.53 µM | 33.7 µM | 2.66 µM | 6.35 µM | 3.35 µM | 13.5 µM | 1.97 µM | 4.56 µM | 2.16 µM | 11.3 µM | 2.33 µM | 8.17 µM | 2.54 µM | 6.64 µM | 1.66 µM | 3.12 µM | 12.6 µM | 39.1 µM |
| CCOC(=O)N1CCc2cc(OC)c(OC)c3c2c1cc1cc(OC)c(OC)cc13 | – | 14.7 µM | – | > 58.3 µM | – | > 100 µM | – | 51.5 µM | – | 2.54 µM | – | 4.3 µM | – | 60.9 µM | – | 12.1 µM | – | 32.9 µM | – | > 100 µM |
| COc1ccc(-n2nnnc2-c2c[nH]c3c(F)cc(F)cc23)cc1 | 36.5 µM | > 100 µM | > 100 µM | > 100 µM | > 100 µM | > 100 µM | > 100 µM | > 100 µM | > 100 µM | > 100 µM | 86 µM | > 100 µM | > 100 µM | > 100 µM | 16.2 µM | 45.4 µM | > 100 µM | > 100 µM | > 100 µM | > 100 µM |
| COC(=O)c1c2c(c(C)[n+]([O-])c1C)C(=O)C=C(NCc1ccc(F)c(Cl)c1)C2=O | 0.437 µM | 2.05 µM | 0.475 µM | 4.71 µM | 0.27 µM | 0.895 µM | 0.149 µM | 0.332 µM | 0.0515 µM | 0.173 µM | 0.266 µM | 1.7 µM | 0.839 µM | 3.93 µM | 1.13 µM | 2.46 µM | 0.164 µM | 0.311 µM | 2.22 µM | 5.49 µM |
| COc1cc2c3c(n(CCCN)c(=O)c2cc1OC)-c1cc2c(cc1/C3=C\CCN)OCO2 | 35.9 µM | 97.2 µM | 0.196 µM | 36.5 µM | 9.09 µM | > 73.9 µM | 1.1 µM | 4.26 µM | – | > 36 µM | 0.2 µM | 3.08 µM | 2.01 µM | > 40.3 µM | 4.41 µM | 14.8 µM | 4.55 µM | 11.8 µM | 4.92 µM | > 28 µM |
| N[C@@H]1CCCC[C@H]1N.O=C([O-])C(=O)[O-].[Pt+4] | 4.85 µM | 32.7 µM | 0.35 µM | > 100 µM | 2.83 µM | > 100 µM | 3.22 µM | 26.6 µM | 0.577 µM | 18.6 µM | 3.92 µM | 32.3 µM | 0.0528 µM | > 91.2 µM | 8.13 µM | > 39.8 µM | 1.14 µM | 13.3 µM | 21.2 µM | 74 µM |
| Ic1ccccc1-c1ccccc1 | 65.1 µM | > 100 µM | 41.5 µM | > 100 µM | 37.1 µM | > 100 µM | 96.2 µM | > 100 µM | > 100 µM | > 100 µM | > 100 µM | > 100 µM | 62.7 µM | > 100 µM | 89.1 µM | > 100 µM | > 100 µM | > 100 µM | > 100 µM | > 100 µM |
| C=C(CN1C(=O)[C@H]2CCCN2C(=O)c2ccccc21)c1ccc(C(=O)O)cc1 | > 100 µM | > 100 µM | > 100 µM | > 100 µM | > 100 µM | > 100 µM | > 100 µM | > 100 µM | > 100 µM | > 100 µM | > 100 µM | > 100 µM | > 100 µM | > 100 µM | > 100 µM | > 100 µM | > 100 µM | > 100 µM | > 100 µM | > 100 µM |
| Cc1cc2nc3c4cc(N)ccc4n(CCN(C)C)c3nc2cc1C | 0.763 µM | 2.32 µM | 0.891 µM | 17.6 µM | 0.947 µM | 4.24 µM | 1.27 µM | 3.08 µM | 0.979 µM | 3.25 µM | 0.721 µM | 5.63 µM | 0.606 µM | 4.86 µM | 0.912 µM | 2.72 µM | 1.48 µM | 2.88 µM | 1.99 µM | 7.54 µM |
| CC1(C)N=C(N)N=C(N)N1c1ccc(OCCCCOc2ccc(S(=O)(=O)F)cc2)c(Cl)c1 | 1.1 µM | 19.9 µM | 0.0794 µM | 17.6 µM | 0.0595 µM | 13.7 µM | 2.38 µM | 37.7 µM | 0.0604 µM | 16.3 µM | 0.16 µM | 16.2 µM | 0.116 µM | 12 µM | 0.363 µM | 23.2 µM | 0.346 µM | 8.5 µM | 1.13 µM | 20.7 µM |
| COc1ncc(-c2ccc3nccc(-c4ccnnc4)c3c2)cc1NS(=O)(=O)c1ccc(F)cc1F | 0.0015 µM | 0.00826 µM | 0.0333 µM and 0.0262 µM | 0.706 µM and 4.04 µM | 0.0224 µM and < 0.01 µM | > 4.01 µM and 1.21 µM | 0.00473 µM and < 0.01 µM | 0.114 µM and 0.0222 µM | 0.0105 µM and < 0.0117 µM | 1.13 µM and 0.863 µM | 0.0147 µM and < 0.0104 µM | 2.16 µM and 2.58 µM | 0.0321 µM and 0.0297 µM | 0.656 µM and 0.963 µM | 0.0048 µM and < 0.01 µM | 0.0436 µM and 0.0351 µM | 0.0237 µM and 0.0154 µM | 0.141 µM and 0.0966 µM | 0.00325 µM and < 0.01 µM | 0.0831 µM and 0.0719 µM |
| C/C(=N\Nc1cc(C)c2cc(C)ccc2n1)c1ccccn1 | 0.134 µM | 3.68 µM | < 0.0276 µM | 0.356 µM | < 0.0431 µM | 0.129 µM | 0.123 µM | 1.27 µM | 0.145 µM | 1.79 µM | < 0.0472 µM | 0.124 µM | 0.079 µM | 1.96 µM | 0.113 µM | 1.53 µM | 0.0827 µM | 1.27 µM | – | 2.82 µM |
| CC(C)(O)CS(=O)(=O)Nc1ccc2c(c1)CCN(C(=O)COc1cccnc1)C2 | > 100 µM | > 100 µM | 1.02 µM | > 100 µM | > 100 µM | > 100 µM | > 100 µM | > 100 µM | 0.518 µM | > 100 µM | – | > 100 µM | 0.799 µM | > 100 µM | > 100 µM | > 100 µM | > 100 µM | > 100 µM | > 100 µM | > 100 µM |
| COC(=O)C1=C(C(=O)ON)C2C=CC1(C(Cc1ccccc1)Nc1ccccc1)O2 (configuration not stated) | 14.7 µM | 27.9 µM | 2.23 µM | 16.9 µM | 2.89 µM | 10.1 µM | 1.76 µM | 3.33 µM | 1.92 µM | 3.86 µM | 1.45 µM | 2.98 µM | 2.33 µM | 6.51 µM | 1.78 µM | 3.2 µM | 14.1 µM | 27.2 µM | 1.71 µM | 3.08 µM |
| CC(=O)[C@@]1(O)CC[C@H]2[C@@H]3C[C@H](C)C4=CC(=O)CC[C@]4(C)[C@H]3[C@@H](O)C[C@@]21C | – | > 100 µM | – | > 100 µM | – | > 100 µM | – | > 100 µM | – | > 100 µM | – | > 100 µM | – | > 100 µM | – | > 100 µM | – | > 100 µM | – | > 100 µM |
| O=C(/C=C/c1cccnc1)NCCCCC1CCCN(C(=O)c2ccccc2)C1 (configuration not stated) | > 61.1 µM | > 100 µM | < 0.01 µM | > 100 µM | 44.7 µM | > 100 µM | > 44.5 µM | > 100 µM | < 0.01 µM | > 100 µM | < 0.01 µM | > 100 µM | < 0.01 µM | > 100 µM | > 100 µM | > 100 µM | < 0.0273 µM | > 100 µM | > 100 µM | > 100 µM |

Reference: PubChem BioAssay (NCI)
